Experimental findings from patent publication US4540697A, “Aminopropanol derivatives of 2-hydroxy-β-phenyl-propiophenones, pharmaceutical compositions and use” (priority 1984, dated 1985) are described below.

Structures can show the parent of a compound that is named as a salt. Where two headings read alike, the source gives them in different places.

Test [1] relates to aconitine arrhythmia in rats. Briefly: Antiarrhythmic action on aconitine arrhythmia in rats. The class given is in vivo, rat (strain: Sprague Dawley). Conditions: aconitine infused 60 minutes after substance; for ED50: Rattus norvegicus, 1 h, read-out: ED 50%: dose which causes a 50% extension in the period of aconitine infusion. On the procedure:
Moreover, the novel compounds were administered orally or intravenously to male rats (strain: Sprague Dawley, weight: 200-230 g) to determine the antiarrhythmic activity. 45 minutes later, the animals were anesthetized by intraperitoneal administration of 100 mg/kg of thiobutabarbital sodium. Aconitine served as the arrhythmogenic substance, and was infused intravenously at a dosage rate of 0.005 mg/kg/minute 60 minutes after administration of the substance. In untreated animals (n=52), arrhythmias appeared in the ECG after 2.74±0.07 minutes. These arrhythmias can be delayed by antiarrhythmic drugs, as a function of the dose.
The dose which extends the infusion period by 50% (ED 50%) was determined from the linear relationship between the logarithm of the dose (mg/kg) of the trial substance and the relative extension of the period of aconitine infusion (Δ%).
(§1) The known antiarrhythmic drug propafenone [2-(2-hydroxy-3-propylamino-propoxy)-3-phenyl-propiophenone hydrochloride]was used as the comparative substance.

Test [2] concerns isolated left atrium of male guineapigs. Briefly: Antiarrhythmic action on the isolated guineapig atrium (drop in maximum rhythmicity). More on the design: species or system guineapig (strain: Pirbright white). The note with it: Cavia porcellus, Tyrode's solution pH 7.4, 32° C., read-out: Maximum rhythmicity (ED 50%): concentration which causes a 50% drop in the maximum rhythmicity. On the procedure: The antiarrhythmic activity of the compounds according to the invention was determined on the isolated left atrium of male guineapigs (strain: Pirbright white, weight: 350 to 450 g).
Atria suspended in an organ bath (volume: 125 ml) with carbogen-saturated Tyrode's solution (pH 7.4, 32° C.) were pre-loaded with 1.0 g and subjected to square-wave pulses having a base rhythm of 1 Hz and twice the excitation threshold (rheobase: 0.2-1.4 V, chronaxia: 0.3-0.5 msec).
The frequency (Hz) up to which contraction follows each stimulus (maximum rhythmicity, MR) was determined, by automatically and continuously increasing the frequency, as a criterion of the antiarrhythmic activity. The concentration which causes a drop in the maximum rhythmicity of 50% (EC 50%) was calculated from the linear relationship between the logarithm of the concentration (mg/l) and the relative drop in the maximum rhythmicity (%).
as §1

For the compound “2-[2'-Hydroxy-3'-(2-hydroxyethylamino)-propoxy]-β-(dimethylaminophenyl)-propiophenone hydrogen oxalate [Example 59]”, the “ED 50%: dose which causes a 50% extension in the period of aconitine infusion” value in test [1] (peroral administration) was 21.5 mg/kg. Regarding `CC(CCO)NCC(O)COc1ccccc1C(=O)CCc1ccccc1` (stereo not drawn) [Example 1, 2-[2'-Hydroxy-3'-(4-hydroxybut-2-ylamino)-propoxy]-β-phenyl-propiophenone hydrochloride], in test [2], the EC50 was 1.9 µg/mL. Besides, in test [1] (po, peroral administration), the ED50 was 15 mg/kg. `COCC(C)NCC(O)COc1ccccc1C(=O)CCc1ccccc1` (stereo not drawn) [Example 2, 2-[2'-Hydroxy-3'-(3-methoxyprop-2-ylamino)-propoxy]-β-phenyl-propiophenone hydrochloride]: the EC50 in test [2] amounted to 0.874 µg/mL. The ED50 in test [1] (po, peroral administration) is 46.4 mg/kg. In the same order, the values of `O=C(CCc1ccccc1)c1ccccc1OCC(O)CNC1CC1` (stereo not drawn) [Example 3, 2-(2'-Hydroxy-3'-cyclopropylamino-propoxy)-β-phenylpropiophenone hydrochloride] are 1.51 µg/mL and 38.2 mg/kg.

For `O=C(CCc1ccccc1)c1ccccc1OCC(O)CNC1CCCCC1` (stereo not drawn) [Example 4, 2-(2'-Hydroxy-3'-cyclohexylamino-propoxy)-β-phenylpropiophenone hydrochloride], in test [1] (po, peroral administration), the ED50 was found to be 46.4 mg/kg. With `C#CC(C)NCC(O)COc1ccccc1C(=O)CCc1ccccc1` (stereo not drawn) [Example 6, 2-[2'-Hydroxy-3'-(1-butyn-3-ylamino)-propoxy]-β-phenyl-propiophenone hydrochloride], the EC50 in test [2] came to 1.71 µg/mL. On the same count and under the same terms, next, `C#CC(C)(C)NCC(O)COc1ccccc1C(=O)CCc1ccccc1` (stereo not drawn) [Example 7, 2-[2'-Hydroxy-3'-(3-methyl-1-butyn-3-ylamino)-propoxy]-β-phenyl-propiophenone hydrochloride]: 1.66 µg/mL. Turning to `CC(C)(O)CCNCC(O)COc1ccccc1C(=O)CCc1ccccc1` (stereo not drawn) [Example 8, 2-[2'-Hydroxy-3'-(3-hydroxy-3-methyl-butylamino)-propoxy]-β-phenyl-propiophenone hydrochloride], the ED50 in test [1] (po, peroral administration) came to 21 mg/kg.

For `CC(CNCC(O)COc1ccccc1C(=O)CCc1ccccc1)c1ccccc1` (stereo not drawn) [Example 12, 2-[2'-Hydroxy-3'-(2-phenylpropylamino)-propoxy]-β-phenyl-propiophenone hydrochloride], the EC50 in test [2] came to 1.25 µg/mL. On the same count and under the same terms, the figure for `COc1ccc(CCNCC(O)COc2ccccc2C(=O)CCc2ccccc2)cc1OC` (stereo not drawn) [Example 14, 2-[2'-Hydroxy-3'-(2-(3,4-dimethoxyphenyl)-ethylamino)propoxy]-β-phenyl-propiophenone hydrochloride] is 2.17 µg/mL; for `COc1ccc(CCN(C)CC(O)COc2ccccc2C(=O)CCc2ccccc2)cc1OC` (stereo not drawn) [Example 15, 2-[2'-Hydroxy-3'-[N-methyl-N-(2-(3,4-dimethoxyphenyl)ethylamino)]-propoxy]-β-phenyl-propiophenone hydrochloride] it is 0.728 µg/mL. On to `CN(C)CCNCC(O)COc1ccccc1C(=O)CCc1ccccc1` (stereo not drawn) [Example 16, 2-[2'-Hydroxy-3'-(2-dimethylaminoethylamino)-propoxy]-β-phenyl-propiophenone bis-hydrochloride], for which, in test [1] (po, peroral administration), the ED50 is 29 mg/kg. For `CN(C)CC(O)COc1ccccc1C(=O)CCc1ccccc1` (stereo not drawn) [Example 18, 2-[2'-Hydroxy-3'-(N,N-dimethylamino)-propoxy]-β-phenyl-propiophenone hydrochloride], the EC50 in test [2] came to 1.3 µg/mL. Still for that read-out and setting: next, `O=C(CCc1ccccc1)c1ccccc1OCC(O)CN1CCC(c2ccccc2)C1` (stereo not drawn) [Example 22, 2-[2'-Hydroxy-3'-(3-phenyl-pyrrolidino)-propoxy]-β-phenyl-propiophenone hydrochloride]: 1.21 µg/mL; `CCCNCC(O)COc1ccccc1C(=O)CCc1ccccc1OC` (stereo not drawn) [Example 29, 2-(2'-Hydroxy-3'-n-propylamino-propoxy)-β-(2-methoxyphenyl)-propiophenone hydrochloride]: 1.71 µg/mL.

With `CCCNCC(O)COc1ccccc1C(=O)CCc1ccc(OC)c(OC)c1` (stereo not drawn) [Example 36, 2-(2'-Hydroxy-3'-n-propylamino-propoxy)-β-(3,4-dimethoxyphenyl)-propiophenone hydrochloride], the ED50 in test [1] (po, peroral administration) stood at 6.92 mg/kg. Turning to `CCCNCC(O)COc1ccc(Cl)cc1C(=O)CCc1ccccc1` (stereo not drawn) [Example 37, 2-(2'-Hydroxy-3'-n-propylamino-propoxy)-5-chloro-β-phenyl-propiophenone hydrochloride], the ED50 in test [1] (po, peroral administration) was determined as 46.4 mg/kg. The same measure, in the same setting: next, `COCC(C)NCC(O)COc1ccc(Cl)cc1C(=O)CCc1ccccc1` (stereo not drawn) [Example 38, 2-[2'-Hydroxy-3'-(3-methoxy-prop-2-ylamino)-propoxy]-5-chloro-β-phenyl-propiophenone hydrochloride]: 21.5 mg/kg; `O=C(CCc1ccccc1)c1cc(Cl)ccc1OCC(O)CN1CCCCC1` (stereo not drawn) [Example 40, 2-(2'-Hydroxy-3'-piperidino-propoxy)-5-chloro-β-phenyl-propiophenone]: 46.4 mg/kg. For `CCCN(CCC)CC(O)COc1ccc(C)cc1C(=O)CCc1ccc(Cl)cc1` (stereo not drawn) [Example 46, 2-(2'-Hydroxy-3'-di-n-propylamino-propoxy)-5-methyl-β-(4-chlorophenyl)-propiophenone hydrochloride], in test [2], the EC50 is 0.778 µg/mL. Take `CCCN(CCC)CC(O)COc1ccc(Cl)cc1C(=O)CCc1ccc(F)cc1` (stereo not drawn) [Example 47, 2-(2'-Hydroxy-3'-di-n-propylamino-propoxy)-5-chloro-β-(p-fluorophenyl)-propiophenone hydrochloride]: the EC50 in test [2] amounted to 1.45 µg/mL. For `CCCNCC(O)COc1ccc(C)cc1C(=O)CCc1ccc(OC)c(OC)c1` (stereo not drawn) [Example 48, 2-(2'-Hydroxy-3'-n-propylamino-propoxy)-5-methyl-β-(3,4-dimethoxyphenyl)-propiophenone hydrochloride], the EC50 in test [2] was 0.923 µg/mL. For the compound `CC(C)NCC(O)COc1ccccc1C(=O)CCc1ccc(N(C)C)cc1` (stereo not drawn) [Example 56, 2-(2'-Hydroxy-3'-isopropylamino-propoxy)-β-(4-dimethylaminophenyl)-propiophenone hydrochloride], the ED50 in test [1] (po, peroral administration) was 3.4 mg/kg. For the compound `CCCNCC(O)COc1ccccc1C(=O)CCc1ccc(N(CC)CC)cc1` (stereo not drawn) [Example 61, 2-(2'-Hydroxy-3'-n-propylamino-propoxy)-β-(4-diethylaminophenyl)-propiophenone hydrochloride], the ED50 in test [1] (po, peroral administration) came out at 1.9 mg/kg. The same measure, in the same setting: the figure for `CCCNCC(O)COc1ccc(Cl)cc1C(=O)CCc1ccc(N(C)C)cc1` (stereo not drawn) [Example 62, 2-(2'-Hydroxy-3'-n-propylamino-propoxy)-5-chloro-β-(4-dimethylaminophenyl)-propiophenone hydrochloride] is 21.5 mg/kg.

Regarding `CCCNCC(O)COc1ccc(C)cc1C(=O)CCc1ccc(N(C)C)cc1` (stereo not drawn) [Example 63, 2-(2'-Hydroxy-3'-n-propylamino-propoxy)-5-methyl-β-(4-dimethylaminophenyl)-propiophenone hydrochloride], in test [1] (po, peroral administration), the ED50 turned out to be 3.03 mg/kg. As to `CC(C)N(CC(O)COc1ccccc1C(=O)CCc1ccc(N(C)C)cc1)C(C)C` (stereo not drawn) [Example 64, 2-[2'-Hydroxy-3'-(N,N-diisopropylamino)-propoxy]-β-(4-dimethylaminophenyl)-propiophenone hydrochloride], in test [2], the EC50 was determined as 1.36 µg/mL.

Regarding `CC(C)N(CC(O)COc1ccc(Cl)cc1C(=O)CCc1ccc(N(C)C)cc1)C(C)C` (stereo not drawn) [Example 66, 2-[2'-Hydroxy-3'-(N,N-diisopropylamino)-propoxy]-5-chloro-β-(4-dimethylaminophenyl)-propiophenone hydrochloride], the ED50 in test [1] (po, peroral administration) was 21.5 mg/kg. As for `Cc1ccc(OCC(O)CN2CCN(C)CC2)c(C(=O)CCc2ccc(N(C)C)cc2)c1` (stereo not drawn) [Example 68, 2-[2'-Hydroxy-3'-(4-methyl-piperazin-1-yl)-propoxy]-5-methyl-β-(4-dimethylaminophenyl)-propiophenone hydrochloride], the ED50 in test [1] (po, peroral administration) worked out at 46.4 mg/kg. Same read-out and setting: next, `COCC(C)NCC(O)COc1ccc(C)cc1C(=O)CCc1ccc(N(C)C)cc1` (stereo not drawn) [Example 69, 2-[2'-Hydroxy-3'-(3-methoxy-prop-2-ylamino)-propoxy]-5-methyl-β-(4-dimethylaminophenyl)-propiophenone hydrochloride]: 31.6 mg/kg.

As to `CCCNCC(O)COc1ccc(O)cc1C(=O)CCc1ccccc1` (stereo not drawn) [Example 71, 2-(2'-Hydroxy-3'-n-propylamino-propoxy)-5-hydroxy-β-phenyl-propiophenone hydrochloride], in test [1] (iv, intravenous administration (footnote 2)), the ED50 was 0.51 mg/kg. Take `CCCNCC(O)COc1ccccc1C(=O)CCc1ccccc1` (stereo not drawn) [Propafenone, 2-(2'-hydroxy-3'-n-propylamino-propoxy)-β-phenyl-propiophenone hydrochloride, reference compound]: the EC50 in test [2] was 2.02 µg/mL.
